Columns and labels:
Format in all cases: in vivo
Settings in all cases: evaluated after 13 days
[1] = test system: Alopecurus myosuroides (ALOMY); assay: Herbicidal glasshouse test, post-emergence, ALOMY
[2] = test system: Setaria faberi (SETFA); assay: Herbicidal glasshouse test, post-emergence, SETFA
In short: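 This post-emergence glasshouse herbicide test used potted Setaria faberi. Plants were cultivated for 8 days under controlled conditions (24/16° C. day/night, 14 hours light, 65% humidity) and then treated with an aqueous spray made from an acetone/water (50:50) solution containing 0.5% Tween 20. After 13 days of further growth with twice-daily watering, damage was rated on a five point scale (5=80-100%; 1=0-19%).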

[3] = test system: Echinochloa crus-galli (ECHCG); assay: Herbicidal glasshouse test, pre-emergence, ECHCG
In short: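 In this pre-emergence glasshouse test, ECHCG seeds sown in pots of standard soil were sprayed one day after sowing with the test material in acetone/water (50:50) containing 0.5% Tween 20. Plants were kept at 24/16° C., 14 hours light, 65% humidity, and watered twice daily. Percentage damage was rated after 13 days on a 1–5 scale.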

[4] = test system: Alopecurus myosuroides (ALOMY); assay: Herbicidal glasshouse test, pre-emergence, ALOMY
[5] = test system: Solanum nigrum (SOLNI); assay: Herbicidal glasshouse test, pre-emergence, SOLNI
In short: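 This pre-emergence glasshouse herbicide test used Solanum nigrum sown in standard soil. One day after sowing, pots were sprayed with the compound in acetone/water (50:50) with 0.5% Tween 20. They were then grown at 24/16° C., with 14 hours light and 65% humidity, and watered twice daily. Percentage damage was scored after 13 days on a five point scale, where 5=80-100% and 1=0-19%.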

[6] = test system: Amaranthus retoflexus (AMARE); assay: Herbicidal glasshouse test, pre-emergence, AMARE
In short: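 This pre-emergence glasshouse herbicide test used Amaranthus retoflexus sown in standard soil. After one day of cultivation, an aqueous spray made from the technical ingredient in 50:50 acetone/water with 0.5% Tween 20 was applied. Pots stayed at 24/16° C., 14 hours light, 65% humidity, with twice-daily watering. Damage was rated on a five point scale (1=0-19% up to 5=80-100%).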

[7] = test system: Ipomoea hederacea (IPOHE); assay: Herbicidal glasshouse test, pre-emergence, IPOHE
[8] = test system: Echinochloa crus-galli (ECHCG); assay: Herbicidal glasshouse test, post-emergence, ECHCG
In short: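 In this post-emergence glasshouse test, barnyard grass (ECHCG) was cultivated for 8 days under controlled conditions (24/16° C. day/night, 14 hours light, 65% humidity). It was then sprayed with an aqueous solution of the technical compound in acetone / water (50:50) with 0.5% Tween 20. Plants were kept under the same conditions and watered twice daily. After 13 days, percentage damage was rated on a five point scale (5=80-100%; 1=0-19%).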

[9] = test system: Setaria faberi (SETFA); assay: Herbicidal glasshouse test, pre-emergence, SETFA
[10] = test system: Solanum nigrum (SOLNI); assay: Herbicidal glasshouse test, post-emergence, SOLNI
[11] = test system: Ipomoea hederacea (IPOHE); assay: Herbicidal glasshouse test, post-emergence, IPOHE
[12] = test system: Amaranthus retoflexus (AMARE); assay: Herbicidal glasshouse test, post-emergence, AMARE
In short: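 This post-emergence glasshouse test used AMARE plants raised in standard soil for 8 days under controlled conditions (24/16° C. day/night, 14 hours light, 65% humidity). Foliage was sprayed with formulated compound in acetone/water (50:50) containing 0.5% Tween 20. Plants were then watered twice daily, and after 13 days percentage damage was rated on a five point scale.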

Row | SMILES | POST Application ALOMY, percentage damage (five point scale) ([1]; applied at 1000 g/h) | POST Application SETFA, percentage damage (five point scale) ([2]; applied at 1000 g/h) | PRE Application ECHCG, percentage damage (five point scale) ([3]; applied at 1000 g/h) | PRE Application ALOMY, percentage damage (five point scale) ([4]; applied at 1000 g/h) | PRE Application SOLNI, percentage damage (five point scale) ([5]; applied at 1000 g/h) | PRE Application AMARE, percentage damage (five point scale) ([6]; applied at 1000 g/h) | PRE Application IPOHE, percentage damage (five point scale) ([7]; applied at 1000 g/h) | POST Application ECHCG, percentage damage (five point scale) ([8]; applied at 1000 g/h) | PRE Application SETFA, percentage damage (five point scale) ([9]; applied at 1000 g/h) | POST Application SOLNI, percentage damage (five point scale) ([10]; applied at 1000 g/h) | POST Application IPOHE, percentage damage (five point scale) ([11]; applied at 1000 g/h) | POST Application AMARE, percentage damage (five point scale) ([12]; applied at 1000 g/h) | further results
1 | Cn1nnnc1NC(=O)c1nn(C)c(=O)n(-c2cc(F)cc(F)c2)c1=O [Compound 1.042] | 5 (5=80-100%) | 5 (5=80-100%) | 5 (5=80-100%) | 5 (5=80-100%) | 5 (5=80-100%) | 5 (5=80-100%) | 5 (5=80-100%) | 5 (5=80-100%) | 5 (5=80-100%) | 5 (5=80-100%) | 5 (5=80-100%) | 5 (5=80-100%) | –
2 | CSc1cccc(-n2c(=O)c(C(=O)Nc3nnnn3C)nn(C)c2=O)c1 [Compound 1.043] | 5 (5=80-100%) | 4 (4=60-79%) | 5 (5=80-100%) | 4 (4=60-79%) | 5 (5=80-100%) | 5 (5=80-100%) | 5 (5=80-100%) | 5 (5=80-100%) | 2 (2=20-39%) | 5 (5=80-100%) | 5 (5=80-100%) | 5 (5=80-100%) | –
3 | Cn1nnnc1NC(=O)c1nn(C)c(=O)n(-c2cc(F)c(F)c(F)c2)c1=O [Compound 1.044] | 5 (5=80-100%) | 5 (5=80-100%) | 5 (5=80-100%) | 5 (5=80-100%) | 5 (5=80-100%) | 5 (5=80-100%) | 5 (5=80-100%) | 5 (5=80-100%) | 5 (5=80-100%) | 5 (5=80-100%) | 5 (5=80-100%) | 5 (5=80-100%) | –
4 | COc1ccc(-n2c(=O)c(C(=O)Nc3nnnn3C)nn(C)c2=O)cc1Cl [Compound 1.045] | 5 (5=80-100%) | 5 (5=80-100%) | 5 (5=80-100%) | 5 (5=80-100%) | 5 (5=80-100%) | 5 (5=80-100%) | 5 (5=80-100%) | 5 (5=80-100%) | 5 (5=80-100%) | 5 (5=80-100%) | 5 (5=80-100%) | 5 (5=80-100%) | –
5 | CC(C)c1ccc(-n2c(=O)c(C(=O)Nc3nnnn3C)nn(C)c2=O)cc1 [Compound 1.046] | 5 (5=80-100%) | 5 (5=80-100%) | 5 (5=80-100%) | 5 (5=80-100%) | 5 (5=80-100%) | 5 (5=80-100%) | 5 (5=80-100%) | 5 (5=80-100%) | 5 (5=80-100%) | 5 (5=80-100%) | 5 (5=80-100%) | 5 (5=80-100%) | –
6 | Cn1nnnc1NC(=O)c1nn(C)c(=O)n(-c2ccc(Cl)c(C#N)c2)c1=O [Compound 1.047] | – | – | – | – | – | – | – | – | – | – | – | – | POST Application ALOMY, percentage damage (five point scale) ([1]; applied at 250 g/ha): 3 (3=40-59%); POST Application SETFA, percentage damage (five point scale) ([2]; applied at 250 g/ha): 1 (1=0-19%); PRE Application ECHCG, percentage damage (five point scale) ([3]; applied at 250 g/ha): 3 (3=40-59%); PRE Application ALOMY, percentage damage (five point scale) ([4]; applied at 250 g/ha): 1 (1=0-19%); PRE Application SOLNI, percentage damage (five point scale) ([5]; applied at 250 g/ha): 5 (5=80-100%); PRE Application AMARE, percentage damage (five point scale) ([6]; applied at 250 g/ha): 5 (5=80-100%); PRE Application IPOHE, percentage damage (five point scale) ([7]; applied at 250 g/ha): 5 (5=80-100%); POST Application ECHCG, percentage damage (five point scale) ([8]; applied at 250 g/ha): 3 (3=40-59%); PRE Application SETFA, percentage damage (five point scale) ([9]; applied at 250 g/ha): 1 (1=0-19%); POST Application SOLNI, percentage damage (five point scale) ([10]; applied at 250 g/ha): 5 (5=80-100%); POST Application IPOHE, percentage damage (five point scale) ([11]; applied at 250 g/ha): 4 (4=60-79%); POST Application AMARE, percentage damage (five point scale) ([12]; applied at 250 g/ha): 5 (5=80-100%)
7 | COc1cc(-n2c(=O)c(C(=O)Nc3nnnn3C)nn(C)c2=O)ccc1F [Compound 1.048] | 5 (5=80-100%) | 5 (5=80-100%) | 5 (5=80-100%) | 5 (5=80-100%) | 5 (5=80-100%) | 5 (5=80-100%) | 5 (5=80-100%) | 5 (5=80-100%) | 5 (5=80-100%) | 5 (5=80-100%) | 5 (5=80-100%) | 5 (5=80-100%) | –
8 | CCCn1nnnc1NC(=O)c1nn(C)c(=O)n(-c2ccc(F)cc2)c1=O [Compound 1.049] | 5 (5=80-100%) | 5 (5=80-100%) | 5 (5=80-100%) | 5 (5=80-100%) | 5 (5=80-100%) | 5 (5=80-100%) | 5 (5=80-100%) | 5 (5=80-100%) | 5 (5=80-100%) | 5 (5=80-100%) | 5 (5=80-100%) | 5 (5=80-100%) | –
9 | Cn1nnnc1NC(=O)c1nn(C)c(=O)n(Cc2ccc(C#N)cc2)c1=O [Compound 1.050] | 5 (5=80-100%) | 1 (1=0-19%) | 5 (5=80-100%) | 5 (5=80-100%) | 5 (5=80-100%) | 5 (5=80-100%) | 5 (5=80-100%) | 5 (5=80-100%) | 2 (2=20-39%) | 5 (5=80-100%) | 5 (5=80-100%) | 5 (5=80-100%) | –
10 | Cc1ccc(Cn2c(=O)c(C(=O)Nc3nnnn3C)nn(C)c2=O)cc1 [Compound 1.051] | 5 (5=80-100%) | 2 (2=20-39%) | 5 (5=80-100%) | 5 (5=80-100%) | 5 (5=80-100%) | 5 (5=80-100%) | 5 (5=80-100%) | 5 (5=80-100%) | 1 (1=0-19%) | 5 (5=80-100%) | 5 (5=80-100%) | 5 (5=80-100%) | –
